Measurements: patent publication US11712429B2, “Low eructation composition and methods for treating and/or preventing cardiovascular disease in a subject with fish allergy/hypersensitivity” (Amarin Pharmaceuticals Ireland Limited, priority 2010, dated 2023)

Columns and labels:
[1] = system: individuals with Huntington disease; assay: Huntington disease trial (TREND-HD): non-fasting triacylglycerols and total cholesterol; type: in vivo, human
Text: Eligible study participants provided written consent. […] The outcome measure of this study was the change in non-fasting triacylglycerol (TG) levels in those on AMR101 compared to those on placebo. Changes in lipid levels were compared using an analysis of covariance (ANCOVA) with treatment group as the factor of interest, site as a stratification factor, and baseline value as a covariate. All individuals who received study medication were included in the safety analysis. For each type of adverse event, the treatment groups were compared regarding the occurrence of at least one event using Fisher's exact test.

[2] = system: individuals with Huntington disease; assay: Huntington disease trial (TREND-HD): total motor score 4 of the Unified Huntington's Disease Rating Scale; type: in vivo, human
Text: Eligible study participants provided written consent.

[3] = Essential fatty acid (EFA) measurements in plasma and RBC, AAMI study; type: in vivo, human
Method: (3) assess the potential dose-effect relationship of E-EPA on the cognitive endpoints by measurement of essential fatty acids in plasma and red blood cell membranes. 94 subjects were randomized. Blood samples (10 mL) were collected at Visit 1 (screening) and at Visits 4, 5 and 6. Analysis was performed by MSR Lipid Analysis, Scottish Crop Research Institute, Dundee, UK. The screening sample acted as baseline for the EFA measurements. Lipid was extracted from plasma, serum and RBC suspensions and converted into fatty acid methyl esters which were analyzed by gas chromatography to give fatty acid profiles as micrograms fatty acid per gram of sample (μgFA/g) and normalized area percent. The CDR computerized system has been used to measure the effects of pharmaceuticals on cognitive function in a variety of clinical trials. Efficacy was assessed by a battery of cognition tests designed by CDR. Safety data were analyzed by Quanticate. RBC and plasma EFA data were collected at baseline, Day 14, 28 and 42 and summarized by visit for each treatment group. Change from baseline and percent change from baseline were also summarized. ANCOVA comparison of ethyl-EPA dose groups and ethyl-EPA versus placebo was performed.

[4] = system: patients with fasting triglyceride levels ≥500 mg/dL; assay: Phase 3 12-week double-blind study: treatment-emergent adverse events; type: in vivo, human; settings: 12 weeks
Method: A multi-center, placebo-controlled randomized, double-blind, 12-week study with an open-label extension was performed to evaluate the efficacy and safety of AMR101 in patients with fasting triglyceride levels ≥500 mg/dL. The primary objective of the study was to determine the efficacy of AMR101 2 g daily and 4 g daily, compared to placebo, in lowering fasting TG levels in patients with fasting TG levels ≥500 mg/dL and ≤1500 mg/dL (≥5.65 mmol/L and ≤16.94 mmol/L). Approximately 240 patients were randomized at approximately 50 centers in North America, South America, Central America, Europe, India, and South Africa. The Phase 3, multi-center study consisted of 3 study periods: (1) A 6- to 8-week screening period that includes a diet and lifestyle stabilization and washout period and a TG qualifying period; (2) A 12-week, double-blind, randomized, placebo-controlled treatment period; and (3) A 40-week, open-label, extension period. After confirmation of qualifying fasting TG values, eligible patients entered a 12-week, randomized, double-blind treatment period. At Visit 4 (Week 0), patients were randomly assigned to 1 of the following treatment groups: • AMR101 2 g daily, • AMR101 4 g daily, or • Placebo. Eligible patients were randomly assigned at Visit 4 (Week 0) to receive orally AMR101 2 g daily, AMR101 4 g daily, or placebo for the 12-week double-blind treatment period. AMR101 was provided in 1 g liquid-filled, oblong, gelatin capsules. The matching placebo capsule was filled with light liquid paraffin and contained 0 g of AMR101. During the double-blind treatment period, patients took 2 capsules (AMR101 or matching placebo) in the morning and 2 in the evening for a total of 4 capsules per day. Patients in the AMR101 2 g/day treatment group received 1 AMR101 1 g capsule and 1 matching placebo capsule in the morning and in the evening. Patients in the AMR101 4 g/day treatment group received 2 AMR101 1 g capsules in the morning and evening. The efficacy variable for the open-label extension period was percent change in fasting TG from extension baseline to end of treatment. Safety assessments included adverse events, clinical laboratory measurements (chemistry, hematology, and urinalysis), 12-lead electrocardiograms (ECGs), vital signs, and physical examinations Top line results of the study are shown in FIGS. 3 and 4. Adverse events are shown in Table 9 by comparison with placebo and those experienced by subjects taking commercially available mixture of E-EPA and E-DHA (Lovaza).

[5] = set-up: species or system human; settings: in vivo
Method: A phase I, multiple dose pharmacokinetic study in healthy male volunteers was carried out at a single center. Twenty-four subjects were divided into two treatment groups of 12 subjects each (groups A and B). Both groups received the same total daily dose of AMR101 but the dosing regiments were different. All subjects received a single oral dose of 2 g AMR101 on Day 1. Treatment Group A received 28 continuous once daily doses of 2 g AMR101. Treatment Group B received 27 continuous twice daily doses of 1 g AMR101 and a single dose of 2 g of AMR101 on day 30.
Levels of EPA and other essential fatty acids were determined in plasma and red blood cells. Blood samples for pharmacokinetic analysis were taken at the following time points for Treatment groups A and B:
Days 9, 16, 23: pre morning dose;
Days 37, 44, 58: post last dose.
A first Interim Report presents the following pharmacokinetic results for Treatment Group B:
Red cell—Day 1 (Pre-dose and 36 h), Day 30 (1 h post-dose), Day 37, Day 44, Day 58.

[6] = system: subjects with age-associated impairment (AAMI); assay: CDR computerized cognitive test battery, 6-week placebo-controlled dose-ranging study; type: in vivo, human
Method: A single center, double blind, randomized, parallel-group, placebo controlled dose-ranging study of E-EPA in subjects with age-associated impairment (AAMI) was performed. The primary goal was to examine the effect of ethyl-EPA versus placebo on cognitive performance in subjects with AAMI as measure by the power of attention tasks in a computerized test batter over a period of 6 weeks. Secondary objectives were to:
(1) examine the effect of E-EPA versus placebo over 6 weeks on the following tests in the computerized cognitive battery: Continuity of attention tasks; Quality of working memory tasks; Quality of episodic memory tasks; Speed of attention tasks;
The study plan was to enroll 96 subjects who would be randomly allocated to 1 of 4 possible treatment groups for 6 weeks, in a balanced block design (24 subjects per group), as follows: • 1. 1 g ethyl-EPA daily • 2. 2 g ethyl-EPA daily • 3. 4 g ethyl-EPA daily • 4. Placebo (paraffin oil) daily
Ethyl-EPA was provided as 500 mg soft gel capsules providing ethyl-EPA of >96% purity, 0.25% to 0.38% by weight ethyl octadecatetraenoate, 0.075% to 0.15% by weight ethyl nonaecapentaenoate, 0.25% to 0.35% by weight ethyl arachidonate, 0.3% to 0.4% by weight ethyl eicosatetraenoate (ETA-E), 0.075% to 0.15% ethyl heneicosapentaenoate and 0.2% dl-[…]-tocopherol as an antioxidant. Matching placebo capsules contained […] of liquid paraffin and 0.2% dl-[…]-tocopherol. The placebo group was further randomized so that an equal number of subjects (8) was allocated 1 g, 2 g or 4 g placebo. Study drug was taken twice daily (BID) as a divided dose (e.g. for the 1 g dose, 500 mg was given in the morning and a further 500 mg was given in the evening) with a light snack or meal.
The study consisted of a screening visit, a training visit and 4 study visits. At the screening visit, subjects' eligibility was determined through cognitive tests (verbal paired associated learning [PAL] subscale, vocabulary subtest, Memory Assessment Clinics Questionnaire [MAC-Q], mini mental state evaluation [MMSE] and MINI [mini international neuropsychiatirc interview; sections 1 and 2 of Diagnostic and Statistical Manual of Mental Disorders, 4th Ed. (DSM-IV) plus dysthymia]), haematology, clinical chemistry and 12-lead electrocardiogram (ECG). At the training visit, subjects were shown how to use the CDR computerized system. Subjects took study drug for 6 weeks and on Days 0, 14, 28 and 42, subjects underwent the CDR cognitive test battery.
A selection of tasks from the CDR computerized cognitive assessment system were administered (Appendix 8 of protocol) at Visit 2 (training visit), Visit 3 (baseline), Visit 4 (Day 14), Visit 5 (Day 28) and Visit 6 (Day 42). Parallel forms of the tests were presented at each testing session. All tasks were computer-controlled, the information presented on high resolution monitors, and the responses recorded via a response model containing 2 buttons 1 marked ‘no’ the other ‘yes’. Five CDR composite scores were used as the primary/secondary outcome variables.
Summary statistics were provided for the ITT and Study PP Populations separately for all composite scores, major and supportive variables. Summary statistics were performed for both the unadjusted and difference from baseline data (i.e. the difference from the time matched pre-dose assessments on Day 0). Summary statistics were calculated by treatment, day and time-point. The summary statistics comprised n, mean, median, SD, standard error of mean (SEM), minimum and maximum values.
Difference from baseline data for each major variable was evaluated by an Analysis of Covariance (ANCOVA) using SAS® PROC MIXED Version 8.2.
Fixed effects for treatment, day, time point, treatment by day, treatment by time point, treatment by day by time-point were fitted. Subject within treatment was fitted as a repeated effect using the repeated statement. The compound symmetry covariance structure was used. […]

subjects with AAMI = settings: 50 mg, cited from earlier work

## CC/C=C\C/C=C\C/C=C\C/C=C\C/C=C\CCCC(=O)OCC [AMR101, all-cis eicosa-5,8,11,14,17-pentaenoic acid ethyl ester]
[1]; 1 gram twice/day, after 6 months, baseline 204 mg/dL, p=0.009 vs placebo
  Total cholesterol reduction: 9.5 mg/dL
[1]; 1 gram twice/day, after 6 months, non-fasting, baseline 171, p=0.007 vs placebo
  decrease in TGs: 26 mg/dL
[1]; 1 gram twice/day, baseline 171 ± 108, p .007
  Change in triglycerides after 6 months (mean mg/dL ± SD): -25.8 ± 89.1 mg/dL
[1]; 1 gram twice/day, baseline 204 ± 41.4, p .009
  Change in total cholesterol after 6 months (mean mg/dL ± SD): -9.5 ± 28.6 mg/dL
[1]; second 6 months open-label, p 0.66
  Change in triglycerides after 12 months (mean mg/dL ± SD): -17.7 ± 86.7 mg/dL
[1]; second 6 months open-label, p 0.95
  Change in total cholesterol after 12 months (mean mg/dL ± SD): -5.6 ± 25.5 mg/dL
[2]; All Study Participants n = 316, baseline 25.2, p 0.02
  Change in total motor score 4 at 12 months (mean): 0.0
[2]; All Study Participants n = 316, baseline 25.2, p 0.20
  Change in total motor score 4 at 6 months (mean): 0.2
[2]; Study Participants with CAG < 45, n = 221, baseline 24.9, p 0.004
  Change in total motor score 4 at 12 months (mean): −1.2
[2]; Study Participants with CAG < 45, n = 221, baseline 24.9, p 0.70
  Change in total motor score 4 at 6 months (mean): 0.0
[3]; 4 g dose, plasma, 6 weeks
  Percent Fatty Acid Change from Baseline: AA: −21.9%
  Percent Fatty Acid Change from Baseline: DGLA: −39.4%
  Percent Fatty Acid Change from Baseline: DHA: −17.5%
  Percent Fatty Acid Change from Baseline: DPA: +147%
[3]; baseline to Day 42, 1, 2, and 4 g treatment groups
  EPA, DPAn-3 and EPA/AA ratio plasma and RBC values: increased substantially
[3]; change from baseline, data not shown
  AA, DHA and DGLA values: decreased substantially
[4]; 2 g/day, N = 76
  Diarrhea: 4 (5.3) n (%)
  Dyspepsia: 1 (1.3) n (%)
  Eructation: 1 (1.3) n (%)
  Hypertension: 4 (5.3) n (%)
  Infection: 2 (2.6) n (%)
  Nausea: 5 (6.6) n (%)
  Skin rash: 1 (1.3) n (%)
  Subjects with any TEAE: 27 (35.5) n (%)
[4]; 4 g/day, N = 77
  Diarrhea: 1 (1.3) n (%)
  Dyspepsia: 1 (1.3) n (%)
  Eructation: 0 (0.0) n (%)
  Hypertension: 1 (1.3) n (%)
  Infection: 4 (5.2) n (%)
  Nausea: 1 (1.3) n (%)
  Skin rash: 0 (0.0) n (%)
  Subjects with any TEAE: 28 (36.4) n (%)
[5]; po
  plasma lipid EPA levels at 48 hours post-administration: remaining above baseline
[5]; male, human
  Tmax: 4.64 h
[5]; male, human, po
  time of maximum plasma lipid EPA values: 5 h
[6]; 1 and 4 g ethyl-EPA on Day 42, versus placebo
  Choice Reaction Time: some trends for benefit
[6]; 2 g ethyl-EPA, only visible in the ITT population
  Continuity of Attention: overall decrease
[6]; Ethyl-EPA vs placebo, F-ratio statistics
  Speed of Memory and subtasks (Spatial and Numeric Working Memory Speeds, Word and Picture Recognition Speed): no differences in performance
[6]; active treatment versus placebo, no obvious treatment-related pattern
  Digit Vigilance Targets Detected: isolated decreases
[6]; active treatment vs placebo
  Self-rated Calmness: no difference in ratings
[6]; ethyl-EPA 1, 2, 4 g daily vs placebo, 6 weeks, ANCOVA
  Power of Attention: no statistically significant effect of treatment
[6]; ethyl-EPA 1 g and 2 g on Day 28, versus placebo, no clear treatment-related pattern
  Choice Reaction Time: statistically significant benefits
[6]; ethyl-EPA 1 g and 2 g versus placebo on Days 14 and 28, judged due to chance
  Quality of Working Memory: isolated statistically significant decreases
[6]; ethyl-EPA 2 g on Day 28, judged unlikely treatment-related
  Self-rated Contentment: statistically significant decreases in ratings
[6]; ethyl-EPA versus placebo at various time-points, judged unlikely to be treatment effect
  Quality of Episodic Secondary Memory: statistically significant decreases
[6]; ethyl-EPA vs placebo
  Self-rated Alertness: no apparent difference in ratings
[6]; ethyl-EPA vs placebo, 6 weeks
  Continuity of Attention: did not show a difference
[6]; post-hoc analysis, ethyl-EPA 4 g vs corresponding placebo
  Reaction times in the attention tasks (Power of Attention, Simple Reaction Time, Choice Reaction Time): improved the subjects' reaction times

## CN[C@@H](C)C/C=C/c1cncc(OC(C)C)c1 [Ispronicline]
Subjects with AAMI; Day 21, SD=61.22, placebo mean=28.25
  Power of Attention, mean: -32.54 ms
Subjects with AAMI; Day 21 of repeated dosing, subjects with AAMI
  benefit to Power of Attention (vs placebo): 61 ms
